Assay results reported in paper PMC5458626 (American heart journal, 2017).
Entries after “also recorded” stand apart in the source; their conditions may differ.

Legend:
[1] = tested on: Phosphodiesterase Type 5 (PDE5); conditions: major circulating metabolite; ref [15]–[17]; cited from earlier work
[2] = Plasma pharmacokinetics of udenafil and DA-8164; conditions: for DA-8164 Cmax: plasma metabolite
Adverse events = type: in vivo, human
Exercise stress test = type: in vivo, human; conditions: for Maximal VO2 at maximum exercise effort, follow-up measurement / VO2 at anaerobic threshold, follow-up measurement: day 5, mean ± SD
[3] = Echocardiography: myocardial performance index; type: in vivo, human; conditions: for Blood pool MPI, follow-up measurement / Tissue Doppler MPI, follow-up measurement: day 5; for Blood pool MPI, difference FU – BL: day 5 minus baseline (negative = improvement)
[4] = Vascular function by peripheral arterial tonometry; type: in vivo, human; conditions: for Augmentation Index adjusted to HR 75, follow-up measurement / Natural log of Reactive Hyperemic Index, follow-up measurement: day 5; for Natural log of Reactive Hyperemic Index, difference FU – BL: day 5 minus baseline (positive = improvement)
[5] = adult males, oral administration; ref [15]–[17]; cited from earlier work
[6] = metabolite, oral udenafil 37.5 mg bid for five days, mean (%CV), N=6
[7] = metabolite, oral udenafil 37.5 mg daily for five days, mean (%CV), N=6
[8] = metabolite, oral udenafil 125 mg daily for five days, mean (%CV), N=6
[9] = once-daily dosing, dose increased 3.3 times
[10] = oral udenafil 37.5 mg bid for five days, mean (%CV), N=6
[11] = oral udenafil 37.5 mg daily for five days, mean (%CV), N=6
[12] = oral udenafil 125 mg daily for five days, mean (%CV), N=6
[13] = twice-daily dosing, dose increased 2.3 times
[14] = total udenafil, all cohorts, N=30
[15] = udenafil 37.5 mg daily, 5 days, N=6
[16] = udenafil 37.5 mg twice daily, 5 days, N=6
[17] = udenafil 125 mg daily, 5 days, N=6
[18] = once-daily dosing, dose increased 3.3 times (37.5 to 125 mg)

CCCOc1ccc(S(N)(=O)=O)cc1-c1nc2c(CCC)nn(C)c2c(=O)[nH]1 [DA-8164]
Potency of DA-8164 relative to udenafil [1]: equipotent
DA-8164 T½ (harmonic mean half-life, 0.693/mean kel) ([2]; metabolite, oral udenafil 37.5 mg bid for five days, N=6): 14.1 h
DA-8164 Cavg (AUC0−τ/τ) [2, 6]: 108 (55) ng/mL
DA-8164 Tmax [2, 6]: 2.1 (78) h
DA-8164 kel [2, 6]: 0.0491 (16) h
DA-8164 AUC0−τ ([2]; metabolite, oral udenafil 37.5 mg bid for five days, τ = 12 hours, mean (%CV), N=6): 1290 (55) ng*h/mL
DA-8164 T½ (harmonic mean half-life, 0.693/mean kel) ([2]; metabolite, oral udenafil 37.5 mg daily for five days, N=6): 14.6 h
DA-8164 Cavg (AUC0−τ/τ) [2, 7]: 36.7 (43) ng/mL
DA-8164 Tmax [2, 7]: 3.1 (51) h
DA-8164 kel [2, 7]: 0.0474 (34) h
DA-8164 T½ (harmonic mean half-life, 0.693/mean kel) ([2]; metabolite, oral udenafil 125 mg daily for five days, N=6): 14.5 h
DA-8164 Cavg (AUC0−τ/τ) [2, 8]: 145 (14) ng/mL
DA-8164 Tmax [2, 8]: 3.8 (35) h
DA-8164 kel [2, 8]: 0.0480 (17) h
Fold increase of mean DA-8164 AUC0−τ with udenafil dose [2, 9]: 4 fold
Fold increase of mean DA-8164 Cmax with udenafil dose [2, 9]: 4.2 fold
DA-8164 Cmax [2, 10]: 159 (52) ng/mL
DA-8164 Cmax [2, 11]: 61.3 (46) ng/mL
DA-8164 Cmax [2, 12]: 256 (13) ng/mL
Fold increase of mean DA-8164 AUC0−τ with udenafil dose [2, 13]: 1.9 fold
Fold increase of mean DA-8164 Cmax with udenafil dose [2, 13]: 1.8 fold

CCCOc1ccc(S(=O)(=O)NCCC2CCCN2C)cc1-c1nc2c(CCC)nn(C)c2c(=O)[nH]1 (stereo not shown) [udenafil]
Subjects with facial flushing possibly or probably related to study medication (Adverse events; 30 subjects, all cohorts): 33%
Subjects with nasal congestion possibly or probably related to study medication (Adverse events; 30 subjects, all cohorts): 20%
Subjects with nausea possibly or probably related to study medication (Adverse events; 30 subjects, all cohorts): 10%
Dose dependence of reported AEs (Adverse events; across the five dosing cohorts): did not increase with increasing dose
Subjects with headache (most common AE) (Adverse events; of 30 subjects exposed to udenafil, all cohorts): 19 subjects
Subjects with headache possibly or probably related to study drug (Adverse events; of the 30 subjects, all cohorts): 63%
Drug-related serious adverse events (Adverse events; study period, all dosing cohorts): No drug-related serious AEs; also recorded: no drug-related serious adverse events were reported
Subjects who experienced drug-related (probably or possibly) adverse events: Headache (Adverse events; [14]): 19 (63) n (%)
Subjects who experienced drug-related adverse events: Abdominal discomfort (Adverse events; [14]): 2 (7) n (%)
Subjects who experienced drug-related adverse events: Back pain (Adverse events; [14]): 1 (3) n (%)
Subjects who experienced drug-related adverse events: Flushing (Adverse events; [14]): 10 (33) n (%)
Subjects who experienced drug-related adverse events: Nasal congestion (Adverse events; [14]): 6 (20) n (%)
Subjects who experienced drug-related adverse events: Nausea (Adverse events; [14]): 3 (10) n (%)
Subjects who experienced drug-related (probably or possibly) adverse events: Headache (Adverse events; [15]): 3 (50) n (%)
Subjects who experienced drug-related adverse events: Abdominal discomfort (Adverse events; [15]): 0 (0) n (%)
Subjects who experienced drug-related adverse events: Back pain (Adverse events; [15]): 0 (0) n (%)
Subjects who experienced drug-related adverse events: Flushing (Adverse events; [15]): 1 (17) n (%)
Subjects who experienced drug-related adverse events: Nasal congestion (Adverse events; [15]): 1 (17) n (%)
Subjects who experienced drug-related adverse events: Nausea (Adverse events; [15]): 1 (17) n (%)
Subjects who experienced drug-related adverse events: Spontaneous penile erection (Adverse events; udenafil 37.5 mg daily, 5 days, N=6, male subjects only): 0 (0) n (%)
Subjects who experienced drug-related (probably or possibly) adverse events: Headache (Adverse events; [16]): 4 (67) n (%)
Subjects who experienced drug-related adverse events: Abdominal discomfort (Adverse events; [16]): 0 (0) n (%)
Subjects who experienced drug-related adverse events: Back pain (Adverse events; [16]): 0 (0) n (%)
Subjects who experienced drug-related adverse events: Flushing (Adverse events; [16]): 2 (33) n (%)
Subjects who experienced drug-related adverse events: Nasal congestion (Adverse events; [16]): 2 (33) n (%)
Subjects who experienced drug-related adverse events: Nausea (Adverse events; [16]): 1 (17) n (%)
Subjects who experienced drug-related (probably or possibly) adverse events: Headache (Adverse events; [17]): 4 (67) n (%)
Subjects who experienced drug-related adverse events: Abdominal discomfort (Adverse events; [17]): 1 (17) n (%)
Subjects who experienced drug-related adverse events: Back pain (Adverse events; [17]): 0 (0) n (%)
Subjects who experienced drug-related adverse events: Flushing (Adverse events; [17]): 1 (17) n (%)
Subjects who experienced drug-related adverse events: Nasal congestion (Adverse events; [17]): 1 (17) n (%)
Subjects who experienced drug-related adverse events: Nausea (Adverse events; [17]): 0 (0) n (%)
Effect on exercise performance (baseline to day 5) (Exercise stress test; all dosing cohorts, 5 days): did not improve in any of the dosing cohorts
Maximal VO2 at maximum exercise effort, follow-up measurement (Exercise stress test; udenafil 37.5 mg BID, N=6): 28.8 ± 8.1 mL/min/kg
VO2 at anaerobic threshold, follow-up measurement (Exercise stress test; udenafil 37.5 mg BID, N=6): 18.1 ± 3.0 mL/min/kg
Maximal VO2 at maximum exercise effort, follow-up measurement (Exercise stress test; udenafil 37.5 mg QD, N=5): 24.7 ± 6.7 mL/min/kg
VO2 at anaerobic threshold, follow-up measurement (Exercise stress test; udenafil 37.5 mg QD, N=5): 16.3 ± 2.0 mL/min/kg
Maximal VO2 at maximum exercise effort, follow-up measurement (Exercise stress test; udenafil 125 mg QD, N=6): 28.6 ± 3.8 mL/min/kg
VO2 at anaerobic threshold, follow-up measurement (Exercise stress test; udenafil 125 mg QD, N=6): 20.0 ± 3.2 mL/min/kg
Blood pool MPI, follow-up measurement ([3]; all udenafil subjects, N=28): 0.52±0.17
Tissue Doppler MPI, follow-up measurement ([3]; all udenafil subjects, N=28): 0.71±0.20
Blood pool MPI, follow-up measurement ([3]; udenafil 37.5 mg BID, N=6): 0.49±0.087
Tissue Doppler MPI, follow-up measurement ([3]; udenafil 37.5 mg BID, N=6): 0.73±0.23
Blood pool MPI, follow-up measurement ([3]; udenafil 37.5 mg QD, N=5): 0.50±0.19
Tissue Doppler MPI, follow-up measurement ([3]; udenafil 37.5 mg QD, N=5): 0.64±0.21
Blood pool MPI, follow-up measurement ([3]; udenafil 125 mg QD, N=5): 0.70±0.20
Tissue Doppler MPI, follow-up measurement ([3]; udenafil 125 mg QD, N=5): 0.82±0.27
Blood pool MPI, difference FU – BL ([3]; all udenafil subjects, N=27): −0.059±0.13
Blood pool MPI, difference FU – BL ([3]; udenafil 37.5 mg BID, N=6): −0.003±0.10
Blood pool MPI, difference FU – BL ([3]; udenafil 37.5 mg QD, N=5): −0.052±0.17
Blood pool MPI, difference FU – BL ([3]; udenafil 125 mg QD, N=5): −0.054±0.18
Effect on lnRHI and AI (baseline to day 5) ([4]; all dosing cohorts, 5 days): no discernible differences between paired baseline and follow-up measures of lnRHI or AI in any dosing cohort
Augmentation Index adjusted to HR 75, follow-up measurement ([4]; all udenafil subjects, N=28): −2.18±13.91
Natural log of Reactive Hyperemic Index, follow-up measurement ([4]; all udenafil subjects, N=28): 0.49±0.28
Augmentation Index adjusted to HR 75, follow-up measurement ([4]; udenafil 37.5 mg BID, N=6): 2.89±7.11
Natural log of Reactive Hyperemic Index, follow-up measurement ([4]; udenafil 37.5 mg BID, N=6): 0.53±0.29
Augmentation Index adjusted to HR 75, follow-up measurement ([4]; udenafil 37.5 mg QD, N=6): −0.62±23.82
Natural log of Reactive Hyperemic Index, follow-up measurement ([4]; udenafil 37.5 mg QD, N=6): 0.51±0.26
Augmentation Index adjusted to HR 75, follow-up measurement ([4]; udenafil 125 mg QD, N=6): 1.90±8.65
Natural log of Reactive Hyperemic Index, follow-up measurement ([4]; udenafil 125 mg QD, N=6): 0.52±0.34
Natural log of Reactive Hyperemic Index, difference FU – BL ([4]; all udenafil subjects, N=27): −0.02±0.30
Natural log of Reactive Hyperemic Index, difference FU – BL ([4]; udenafil 37.5 mg BID, N=6): −0.07±0.17
Natural log of Reactive Hyperemic Index, difference FU – BL ([4]; udenafil 37.5 mg QD, N=6): 0.03±0.47
Natural log of Reactive Hyperemic Index, difference FU – BL ([4]; udenafil 125 mg QD, N=6): −0.10±0.38
Udenafil terminal half-life [5]: ~16 h
Dose dependence of oral clearance (CL/F) ([2]; across the five dosing cohorts): decreased with increasing dose
Cmax ([2]; human, plasma, po, 37.5 mg, Udenafil Cmax, oral udenafil 37.5 mg bid for five days, mean (%CV), N=6): 152 ng/mL
Effect of gender on dose-normalized Cmax and Cavg ([2]; male (N=17) vs female (N=13), oral udenafil 5 days): not different for the male and female patients
Fold increase of mean udenafil AUC0−τ with dose [2, 18]: 4 fold
Fold increase of mean udenafil Cmax with dose [2, 18]: 4.6 fold
Udenafil CL/F (oral clearance) [2, 10]: 39.9 (36) L/h
Udenafil CL/F (oral clearance) [2, 11]: 53.3 (40) L/h
Udenafil CL/F (oral clearance) [2, 12]: 43.3 (39) L/h
